Experimental findings from patent publication US9782464B2, “Methods and compositions for inhibiting diseases of the central nervous system” (Board of Regents of the University of Nebraska, priority 2008, dated 2017) are described below.

Holding throughout (assay type): cell-based, mouse
In one assay the test system is SPC (spleen cells). The assay can be described thus: Antigen-specific 3H-thymidine proliferation of SPC from immunized mice.
For assay [1], the system named is anti-CD3 stimulated T cells. The assay can be described thus: PI uptake cytotoxicity of anti-CD3 stimulated T cells (flow cytometry). The conditions noted are these: 24 hours. As to the method:
To assess α-Syn-mediated cytotoxicity, purified T cells were stimulated with anti-CD3 and cultured at a density of 1×10^6 cells/ml for 24 hours in media alone or in the presence of 4YSyn or N-4YSyn at concentrations of 1, 3, 10, or 30 μg/ml. Cells were stained with PI, washed and the percentages of PI^+ dead cells and MFI were analyzed by flow cytometry.
Background: A flow cytometer gives signals particle by particle.

For a further assay, the system named is effector T cells. In words: Treg inhibition of CD3-mediated effector T cell proliferation. The conditions noted are these: Treg from FoxP3-GFP donors, ratio of 1:1. Here is the method:
Seven days following treatment, mice were sacrificed and single cell suspensions were prepared from inguinal lymph nodes and spleens. CD4+ T cell populations from spleens and lymph nodes were enriched by negative selection with CD4-enrichment columns (R & D Systems) followed by CD25-PE positive selection with AutoMACS (Miltenyi Biotec). […] Proliferation and inhibition assays were performed as described. MPTP-intoxicated mice received an i.v. tail injection of 5×10^7 SPC or 1×10^6 Treg in 0.25 ml of HBSS.

Another assay relates to TNF-α. In words: Cytometric bead array of T cells restimulated with antigen. The note with it: T cells from N-4YSyn-immunized donors restimulated in vitro. Here is the method:
Triplicate co-cultures of antigen presenting cells (APC) and T cells from PBS, 4YSyn- and N-4YSyn-immunized mice were stimulated with 4YSyn or N-4YSyn. After 24 hours of culture, 50 μl samples were collected, centrifuged, and supernatants frozen at −80° C. until utilized. Frozen supernatants were thawed only once and analyzed using the BD Cytometric Bead Array Mouse Th1/Th2 Kit (BD Biosciences, San Jose, Calif.) according to the manufacturer's instructions.

As for “N-4YSyn: peroxynitrite-nitrated recombinant His-tagged C-terminal 40 aa fragment of mouse α-Syn”, the “proliferative response of SPC to in vitro stimulation with the antigen” value in the assay with SPC (spleen cells) (B6 mice immunized with N-4YSyn/PBS without adjuvant) is reported as “significant lymphocyte proliferative response”; with SPC (spleen cells) (B10.BR mice immunized in CFA/IFA), “significant proliferative responses”. Moreover, the “% PI+ T cells” value in assay [1] (1 μg/ml) turned out to be 15.9%; in assay [1] (3 μg/ml) it was 17.9%; in assay [1] (10 μg/ml) it was 47.8%; in assay [1] (30 μg/ml) it was 91.3%. The “MFI of PI-stained T cells” value is listed as 42.8 in assay [1] (1 μg/ml), 58.7 in assay [1] (3 μg/ml), 71.6 in assay [1] (10 μg/ml) and 106.1 in assay [1] (30 μg/ml). In addition, in the assay on effector T cells, the “inhibition of effector T cell proliferation to anti-CD3 stimulation by Treg” value turned out to be 20%. Moreover, in the assay on TNF-α, the TNF-α levels came to 26.0 ± 1.2 pg/mL.
